For assay [1], the species on record is Oryctolagus cuniculus. In words: Reduction in intraocular pressure in New Zealand albino rabbit model of hypertonic saline-induced ocular hypertension at 1 to 2% instilled immediately after hypertonic saline injection measured after 4 hrs post dose. The conditions noted are these: Eye. In kind it is functional.
For assay [2], the species on record is Oryctolagus cuniculus. In words: Reduction in intraocular pressure in New Zealand albino rabbit model of hypertonic saline-induced ocular hypertension at 1 to 2% instilled immediately after hypertonic saline injection measured after 2 hrs post dose. In kind it is functional, Eye.
The target in assay [3] is Carbonic anhydrase 9 (Homo sapiens, UniProt Q16790).
Description: Inhibition of human carbonic anhydrase 9 pre-incubated for 15 mins by stopped flow carbon dioxide hydrase assay
Assay [4] has as its target Carbonic anhydrase 1 (Homo sapiens, UniProt P00915). In words: Inhibition of human carbonic anhydrase 1 pre-incubated for 15 mins by stopped flow carbon dioxide hydrase assay.
For assay [5], the target named is Carbonic anhydrase 2 (Homo sapiens, UniProt P00918). Description: Inhibition of human carbonic anhydrase 2 pre-incubated for 15 mins by stopped flow carbon dioxide hydrase assay.

The results in this text go back to ChEMBL document CHEMBL3860109, “Benzenesulfonamides Incorporating Flexible Triazole Moieties Are Highly Effective Carbonic Anhydrase Inhibitors: Synthesis and Kinetic, Crystallographic, Computational, and Intraocular Pressure Lowering Investigations” (J Med Chem, 2016).

By Ki is commonly meant a measure of affinity in units of concentration, obtained from inhibition or displacement. Low values mean a stronger hold on the target, high ones a looser hold on the target.

Activity calls are given as the source filed them. The rule behind the calls is not given here.

Carbonic anhydrase 1, sequence (P00915 whole entry): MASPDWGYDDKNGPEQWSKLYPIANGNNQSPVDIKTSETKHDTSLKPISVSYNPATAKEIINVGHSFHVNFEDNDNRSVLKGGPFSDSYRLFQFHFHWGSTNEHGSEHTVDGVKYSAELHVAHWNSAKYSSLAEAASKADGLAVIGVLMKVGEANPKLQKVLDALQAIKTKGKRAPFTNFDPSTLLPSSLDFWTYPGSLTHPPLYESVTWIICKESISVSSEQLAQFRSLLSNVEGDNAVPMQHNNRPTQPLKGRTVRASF

With `NS(=O)(=O)c1ccc(-n2cc(COc3ccccc3)nn2)cc1`, in assay [1], the outcome was Active. This compound also returned an Activity in assay [2] of 3 mmHg. Further, affinity in assay [3] was put at a Ki of 2.1 nM. Consider `COc1cccc(OCc2cn(-c3ccc(S(N)(=O)=O)cc3)nn2)c1`, for which the affinity in assay [3], expressed as Ki, was 9.3 nM. With `NS(=O)(=O)c1ccc(OCc2cn(-c3ccc(C(F)(F)F)cc3)nn2)cc1`, the Ki in assay [3] is 23.6 nM; in assay [4], over 10000 nM. In the case of `NS(=O)(=O)c1ccc(OCc2cn(-c3ccc(O)cc3)nn2)cc1`, the Ki in assay [3] was found to be 18.7 nM.

In assay [2], `NS(=O)(=O)c1ccc(-n2cc(CNc3ccccc3)nn2)cc1` had an Activity of 2 mmHg. The compound further came in with a Ki in assay [3] of 2.2 nM. For the compound `NS(=O)(=O)c1ccc(-n2cc(CN(Cc3cn(-c4ccc(S(N)(=O)=O)cc4)nn3)c3ccccc3)nn2)cc1`, the Ki in assay [5] was over 10000 nM; in assay [3], 12.1 nM; in assay [4] it was over 10000 nM. As to `COc1cccc(-n2cc(COc3ccc(S(N)(=O)=O)cc3)nn2)c1`, the affinity in assay [3], expressed as Ki, was 20.5 nM. On the same count and under the same terms, the same measure for `Cc1cccc(OCc2cn(-c3ccc(S(N)(=O)=O)cc3)nn2)c1`: 2.3 nM; for `COc1ccc(OCc2cn(-c3ccc(S(N)(=O)=O)cc3)nn2)cc1`: 14.3 nM; for `NS(=O)(=O)c1ccc(-n2cc(COc3cccnc3)nn2)cc1`: 17.2 nM. Consider `NS(=O)(=O)c1ccc(-n2cc(CSc3ccccc3)nn2)cc1`, for which, in assay [3], the Ki turned out to be 2.4 nM. On the same count and under the same terms, under `NS(=O)(=O)c1ccc(OCc2cn(-c3ccc(F)cc3)nn2)cc1` stands 16.2 nM; under `NS(=O)(=O)c1ccc(OCc2cn(-c3ccccc3)nn2)cc1`, 2.6 nM. Take `NS(=O)(=O)c1ccc(-n2cc(-c3ccccc3)nn2)cc1`: the Ki in assay [4] turned out to be 342 nM.
